ChEMBL document CHEMBL1201862, “PubChem BioAssay data set” (2004)
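How tested: cells in 96-well plates exposed to compound for 48 hours at five concentrations. Here, GI50 denotes the concentration required for 50% inhibition of growth.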 Activity calls are given as the source filed them. Cut-off read from the data, not from the text of the source: active = GI50 up to about 1.1 µM and inactive = higher.

How the values were obtained:
Assay in all cases: growth of human tumour cells (NCI), 48 h
ACHN = test system: ACHN
Hs-578T = test system: Hs-578T
MCF7 = test system: MCF7
MDA-MB-231 = test system: MDA-MB-231
Malme-3M = test system: Malme-3M
NCI-H23 = test system: NCI-H23
NCI-H460 = test system: NCI-H460
OVCAR-8 = test system: OVCAR-8
PC-3 = test system: PC-3
SF-295 = test system: SF-295
SK-MEL-28 = test system: SK-MEL-28
SK-MEL-5 = test system: SK-MEL-5
SR = test system: SR
U-251 = test system: U-251
UACC-257 = test system: UACC-257
UO-31 = test system: UO-31
HCT-116 = test system: HCT-116
MDA-N = test system: MDA-N
T47D = test system: T47D

Measured: GI50

CCOC(=O)N1CCC2(CC1)C[C@](C)(C(C)=O)C(C)O2 (stereo partly drawn)
inactive: ACHN > 100 µM | Hs-578T > 100 µM | MCF7 > 100 µM | MDA-MB-231 > 100 µM | Malme-3M > 100 µM | NCI-H23 > 100 µM | NCI-H460 > 100 µM | OVCAR-8 > 100 µM | PC-3 > 100 µM | SF-295 > 100 µM | SK-MEL-28 > 100 µM | SK-MEL-5 > 100 µM | SR > 100 µM | U-251 > 100 µM | UACC-257 > 100 µM | UO-31 > 100 µM

O=S(=O)(c1ccc(/N=C2\NC(c3ccc(O)cc3)(c3ccccc3O)c3ccccc32)cc1)c1ccc(/N=C2/NC(c3ccc(O)cc3)(c3ccccc3O)c3ccccc32)cc1 (stereo not drawn)
inactive: ACHN 20.2 µM | HCT-116 2.23 µM | Hs-578T 3.4 µM | MCF7 3.95 µM | MDA-N 2.99 µM | Malme-3M 2.32 µM | NCI-H23 2.62 µM | NCI-H460 3.7 µM | OVCAR-8 3.33 µM | PC-3 5.05 µM | SF-295 5.28 µM | SK-MEL-5 4.46 µM | SR 5.38 µM | T47D 2.25 µM | UACC-257 5.02 µM | UO-31 21.5 µM

CCOC(=O)c1c(C)nc2c3ccccc3c(C#N)c(C)n12
inactive: ACHN 57.5 µM | HCT-116 37.2 µM | Hs-578T 32.9 µM | MCF7 > 100 µM | MDA-MB-231 14.3 µM | MDA-N > 10 µM | NCI-H460 49.4 µM | OVCAR-8 49.1 µM | PC-3 > 100 µM | SF-295 34.9 µM | SK-MEL-28 > 100 µM | SK-MEL-5 48.1 µM | SR 33.9 µM | U-251 70.8 µM | UACC-257 > 100 µM | UO-31 15.6 µM

Oc1nc(S)nc2c1C(c1ccc(Cl)cc1)c1c(O)nc(S)nc1O2
inactive: ACHN > 100 µM | HCT-116 > 100 µM | Hs-578T > 100 µM | MCF7 > 100 µM | MDA-MB-231 > 100 µM | MDA-N > 100 µM | Malme-3M > 100 µM | NCI-H23 > 100 µM | NCI-H460 > 100 µM | OVCAR-8 > 100 µM | PC-3 > 100 µM | SF-295 > 100 µM | SK-MEL-28 > 100 µM | SK-MEL-5 > 100 µM | U-251 > 100 µM | UACC-257 > 100 µM | UO-31 > 100 µM

C=C1C(=O)O[C@@H]2/C=C(/C)[C@@H](OC(C)=O)C/C=C(\C)C(O)[C@@H](OC(=O)/C(C)=C\C)C12 (stereo partly drawn)
inactive: ACHN 18.7 µM | HCT-116 16.3 µM | Hs-578T 56.2 µM | MCF7 27.6 µM | MDA-MB-231 19.1 µM | NCI-H23 41.9 µM | NCI-H460 39 µM | OVCAR-8 26.8 µM | PC-3 76.2 µM | SF-295 > 100 µM | SK-MEL-28 18.2 µM | SK-MEL-5 15.8 µM | SR 17.3 µM | T47D 19.6 µM | U-251 41.1 µM | UACC-257 37.2 µM

CN(C)CCn1nc(N)c2nc3cc(C(F)(F)F)ccc3nc21
inactive: ACHN > 100 µM | HCT-116 > 100 µM | Hs-578T 88.7 µM | MCF7 > 100 µM | MDA-MB-231 > 100 µM | MDA-N > 100 µM | Malme-3M > 100 µM | NCI-H23 > 100 µM | NCI-H460 51.4 µM | OVCAR-8 88.3 µM | PC-3 > 100 µM | SF-295 > 100 µM | SK-MEL-28 > 100 µM | SK-MEL-5 > 100 µM | SR > 100 µM | U-251 > 100 µM | UACC-257 > 100 µM | UO-31 31.3 µM

Cn1c(S)nnc1CNc1ccc(-c2nnc(S)n2C)cc1
inactive: ACHN > 100 µM | HCT-116 > 100 µM | MCF7 > 100 µM | MDA-MB-231 > 100 µM | MDA-N > 100 µM | Malme-3M > 100 µM | NCI-H23 > 100 µM | NCI-H460 > 100 µM | OVCAR-8 > 100 µM | PC-3 > 100 µM | SF-295 > 100 µM | SK-MEL-28 > 100 µM | SK-MEL-5 > 100 µM | U-251 > 100 µM | UACC-257 > 100 µM | UO-31 > 100 µM

COc1ccc(/C=C2\C(=O)N(C)C(=O)c3cc(OC)c(OC)cc32)cc1OC
inactive: ACHN 30.5 µM | HCT-116 29.4 µM | MCF7 27.2 µM | MDA-MB-231 39.4 µM | MDA-N 24.3 µM | NCI-H23 39.5 µM | NCI-H460 37.5 µM | PC-3 49.7 µM | SF-295 37.8 µM | SK-MEL-5 28.8 µM | SR 19.2 µM | T47D 24.5 µM | U-251 33 µM | UACC-257 47.3 µM | UO-31 48 µM

Cc1cc(C)nc(NC(=O)c2ccc(Br)s2)c1
inactive: ACHN > 100 µM | HCT-116 10.7 µM | MCF7 28 µM | MDA-MB-231 21.7 µM | MDA-N 31.8 µM | Malme-3M > 100 µM | NCI-H23 77.6 µM | NCI-H460 > 100 µM | OVCAR-8 > 100 µM | PC-3 > 100 µM | SF-295 20.5 µM | SK-MEL-28 > 100 µM | SK-MEL-5 5.13 µM | SR > 100 µM | T47D 31.9 µM | U-251 > 100 µM | UACC-257 > 100 µM | UO-31 25.6 µM

Cc1c(C#N)c2ccccc2c2nc3ccccc3n12
inactive: ACHN 64.1 µM | HCT-116 24.9 µM | Hs-578T 63 µM | MCF7 50.9 µM | MDA-MB-231 20.6 µM | MDA-N 67.6 µM | NCI-H460 27.7 µM | OVCAR-8 > 100 µM | PC-3 > 100 µM | SF-295 > 100 µM | SK-MEL-28 > 100 µM | SK-MEL-5 5.82 µM | SR > 10 µM | U-251 > 100 µM | UACC-257 > 100 µM | UO-31 11.7 µM

CSC(SC)=C1C(=O)N(c2ccccc2)N=C1C
inactive: ACHN 27.4 µM | HCT-116 22.9 µM | Hs-578T 88.1 µM | MCF7 17.3 µM | MDA-MB-231 33.8 µM | MDA-N 34.8 µM | Malme-3M 21.7 µM | NCI-H460 23.9 µM | OVCAR-8 33.8 µM | PC-3 28.1 µM | SF-295 25.9 µM | SK-MEL-5 10.3 µM | U-251 35.1 µM | UACC-257 27.4 µM

O=c1[nH]c2ccc(CC(=S)N3CCOCC3)cc2o1
inactive: ACHN > 100 µM | HCT-116 > 100 µM | Hs-578T > 100 µM | MCF7 > 100 µM | MDA-MB-231 > 100 µM | Malme-3M > 100 µM | NCI-H23 > 100 µM | NCI-H460 > 100 µM | OVCAR-8 > 100 µM | PC-3 > 100 µM | SF-295 > 100 µM | SK-MEL-28 > 100 µM | SR 56.6 µM | U-251 > 100 µM | UACC-257 > 100 µM
